Test results reported in ChEMBL document CHEMBL5620344, “Discovery of novel 5-(2-hydroxyphenyl)-2-phthalide-3(3H)-pyrazolones as balanced multifunctional agents against Alzheimer's disease” (Eur J Med Chem, 2023).
The source made the active and inactive calls. No cut-off for these calls is given here.

Legend:
[1] = molecular target: T1, Amine oxidase [flavin-containing] A (Homo sapiens, UniProt P21397); assay: Inhibition of human recombinant MAO-A
T1 sequence (P21397 whole entry): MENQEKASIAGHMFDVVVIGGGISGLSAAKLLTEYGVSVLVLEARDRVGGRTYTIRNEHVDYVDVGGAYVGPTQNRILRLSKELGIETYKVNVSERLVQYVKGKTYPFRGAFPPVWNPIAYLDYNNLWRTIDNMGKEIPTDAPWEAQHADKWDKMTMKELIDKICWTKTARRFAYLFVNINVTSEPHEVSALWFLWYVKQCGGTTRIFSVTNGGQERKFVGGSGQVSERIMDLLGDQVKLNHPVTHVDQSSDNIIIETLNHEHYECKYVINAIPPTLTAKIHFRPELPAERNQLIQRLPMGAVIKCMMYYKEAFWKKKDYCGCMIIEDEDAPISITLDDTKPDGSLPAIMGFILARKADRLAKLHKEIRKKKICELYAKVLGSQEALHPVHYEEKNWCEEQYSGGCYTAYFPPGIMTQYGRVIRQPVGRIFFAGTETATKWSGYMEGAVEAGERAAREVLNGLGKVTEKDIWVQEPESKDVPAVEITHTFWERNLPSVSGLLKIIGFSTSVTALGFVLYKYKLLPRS

[2] = Half life in BALB/c mouse plasma at 30 mg/kg, ig; assay type: ADME, organism-based; conditions: po
[3] = Metal chelating activity assessed as compound-Cu2+ complex formation at stoichiometric ratio of 1:1 in presence of CuCl2 by UV-Vis spectroscopy
[4] = Ratio of AUC in brain to plasma in BALB/c at 30 mg/kg, ig; assay type: ADME, organism-based; conditions: mouse, po
[5] = system: PC-12; assay: Cytotoxicity against rat PC12 cells assessed as effect on cell viability at 2.5 to 25 uM by MTT assay; assay type: toxicity, cell-based; conditions: pc-12, 25 µM, dose 2.5-25 µM
[6] = molecular target: Amyloid-beta precursor protein (Homo sapiens) (UniProt P05067); assay: Disaggregation of self-induced amyloid beta (1 to 42) (unknown origin) preformed fibrils assessed as reduction in long fibrils formed incubated for 24 hrs by transmission electron microscopy
[7] = Selectivity index, ratio of IC50 for human recombinant MAO-A to IC50 for human recombinant MAO-B
[8] = molecular target: Amyloid-beta precursor protein (Homo sapiens) (UniProt P05067); assay: Inhibition of Cu2+-induced amyloid beta (1 to 42) (unknown origin) aggregation at 25 uM by ThT fluorescence assay
[9] = molecular target: Amyloid-beta precursor protein (Homo sapiens) (UniProt P05067); assay: Inhibition of self-induced amyloid beta (1 to 42) (unknown origin) aggregation assessed as short and thin fibrils incubated for 24 hrs by transmission electron microscopy
[10] = system: BV-2; assay: Anti-neuroinflammatory activity against LPS-stimulated mouse BV-2 cells assessed as inhibition of NO release at 0.5 uM incubated for 24 hrs by Griess reagent based assay; assay type: functional
[11] = molecular target: Amyloid-beta precursor protein (Homo sapiens) (UniProt P05067); assay: Disaggregation of Cu2+-induced amyloid beta (1 to 42) (unknown origin) preformed fibrils at 25 uM by ThT fluorescence assay
[12] = Half life in BALB/c mouse brain at 30 mg/kg, ig; assay type: ADME, organism-based; conditions: po
[13] = Metal chelating activity assessed as compound-Zn2+ complex formation by measuring red shift of absorption peak with declined absorption at 37.5 uM in presence of ZnCl2 by UV-Vis spectrometry
[14] = system: PC-12; assay: Neuroprotective activity against H2O2-induced cytotoxicity in rat PC12 cells assessed as cell viability at 1 uM by MTT assay (reference value: 54.9%); assay type: functional; conditions: read-out: Activity
[15] = system: Mus musculus; assay: Antialzheimer activity against amyloid beta (1-42)-induced alzheimer's disease mouse model assessed as decrease in cognitive impairment by measuring increase in number of crossing the target area in spatial probe trial at 8 to 32 mg/kg and measured on day 6 by Morris water maze test; assay type: functional, organism-based; conditions: dose 8-32 mg/kg, time 6.0 day
[16] = Metal chelating activity assessed as compound-Cu2+ complex formation by measuring red shift of absorption peak with declined absorption at 37.5 uM in presence of CuCl2 by UV-Vis spectrometry
[17] = molecular target: T2, MAO-A (Homo sapiens, UniProt P21397); assay: Inhibition of human recombinant MAO-A at 10 uM
T2 sequence (P21397 whole entry): T1 sequence (P21397 whole entry)

[18] = system: BV-2; assay: Anti-neuroinflammatory activity against LPS-stimulated mouse BV-2 cells assessed as inhibition of NO release at 2.5 uM incubated for 24 hrs by Griess reagent based assay; assay type: functional
[19] = Metal chelating activity assessed as compound-Fe2+ complex formation by measuring increase in absorbance at 37.5 uM in presence of FeSO4 by UV-vis spectrometry

Chain of Amyloid-beta precursor protein (Homo sapiens) (P05067 whole entry): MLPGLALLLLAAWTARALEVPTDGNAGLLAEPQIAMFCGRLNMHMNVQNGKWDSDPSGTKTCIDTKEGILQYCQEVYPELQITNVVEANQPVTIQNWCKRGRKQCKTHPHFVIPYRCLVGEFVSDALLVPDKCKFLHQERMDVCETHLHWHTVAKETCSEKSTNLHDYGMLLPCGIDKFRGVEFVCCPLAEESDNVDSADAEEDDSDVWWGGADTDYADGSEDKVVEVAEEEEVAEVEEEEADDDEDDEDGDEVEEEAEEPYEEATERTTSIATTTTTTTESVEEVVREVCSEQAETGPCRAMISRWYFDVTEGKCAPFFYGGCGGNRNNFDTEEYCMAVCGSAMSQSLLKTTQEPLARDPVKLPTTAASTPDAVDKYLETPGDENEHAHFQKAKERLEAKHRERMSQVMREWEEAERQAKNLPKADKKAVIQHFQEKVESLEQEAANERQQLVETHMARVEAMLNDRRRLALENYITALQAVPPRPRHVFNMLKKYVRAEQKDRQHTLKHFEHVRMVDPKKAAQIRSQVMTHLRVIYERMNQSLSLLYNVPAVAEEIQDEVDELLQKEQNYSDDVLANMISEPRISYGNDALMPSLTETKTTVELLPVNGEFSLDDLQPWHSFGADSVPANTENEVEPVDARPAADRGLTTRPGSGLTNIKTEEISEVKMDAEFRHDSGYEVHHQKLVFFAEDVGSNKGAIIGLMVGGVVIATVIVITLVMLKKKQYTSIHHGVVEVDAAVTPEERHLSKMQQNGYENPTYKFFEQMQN

half-life [2]: 1.15 h | Activity [3]: Active | Kp [4]: 0.69 | Activity [6]: Active | Ratio IC50 [7]: > 24.4 | inhibition [8]: 57.5% | inhibition [9]: Active | Activity [11]: 82.4% | half-life [12]: 2.07 h | Activity [13]: Active | Activity [16]: Active | Activity [19]: Active
SMILES: CCCCCCCC1OC(=O)c2cc(N3N=C(c4cc(Cl)ccc4O)CC3=O)ccc21 (centres undefined)
IC50 [1]: > 10 µM | Activity [5]: Non-Toxic | inhibition at 0.5 µM [10]: 25.9% | viability at 1 µM [14]: 66.9% | Activity [15]: Active | inhibition at 10 µM [17]: 32.6% | inhibition at 2.5 µM [18]: 37.9%
